Measured values taken from patent US11717528B2, “Methods and compositions relating to the treatment of fibrosis” (BROWN UNIVERSITY, priority 2017, dated 2023).
Entries after “also recorded” stand apart in the source; their conditions may differ.

Experiments:
[1] = tested on: TGFβ1-stimulated inflammation and fibrosis; assay: transgenic TGFβ1-stimulated inflammation and fibrosis; assay type: in vivo, TGFβ1 transgenic mice; conditions: for fibrosis: transgenic TGFβ1 stimulation (FIG. 10, 11)
Description: FIG. 10 depicts graphs of the effect of Kasugamycin on transgenic TGFβ1-stimulated inflammation and fibrosis
FIG. 11 depicts the effect of kasugamycin on TGFβ1-stimulated fibrosis. In this figure WT=wild type mice; TG=TGFβ1 transgenic mice.
(§1) The results were validated by measuring dose-response (FIG. 4). Assay conditions were 0.33 nM of recombinant Chit1, 1 μM of test compound, 4 μM of substrate, 30 min incubation at room temperature.

[2] = tested on: bleomycin-induced pulmonary fibrosis; assay: bleomycin I.T. model of pulmonary fibrosis; assay type: in vivo, mice; conditions: bleomycin I.T. model (FIG. 9)
Description: FIG. 5 depicts schematic diagrams of in vivo validation of antifibrotic effect of Chit1 inhibitors using bleomycin models of pulmonary fibrosis
FIG. 9 depicts BAL cell recovery and total lung coallagen with and without Kasugamycin treatment (I.T. Model)
as §1

recombinant Chit1 = recombinant Chit1 (Homo sapiens, UniProt Q13231); assay: Chit1 inhibitor screen and dose-response validation; assay type: biochemical; conditions: for ability to inhibit Chit1 (chitotriosidase) activity: among aminoglycoside antibiotics (FIG. 1)
Description: FIG. 4 depicts dose-response validation of inhibitory activities of kasuagmycin on Chit1 activities
Chit1 is a biomarker and therapeutic target of SSc-ILD, as well as plahing a significant role in bleomycin- and IL-13-induced pulmonary fibrosis. In order to discover new therapeutic approaches for fibrotic diseases, we screened for inhibitors of Chit1, using pentoxifylline as a positive control. The results of the screen were expressed as a % of the inhibitory activity of 200 uM of pentoxifylline. This assay identified 51 compounds that have more than 45% of inhibition (compared to 200 μM pentoxifylline). One of the compounds so identified was kasugamycin.
as §1

[3] = tested on: fibrosis (collagen accumulation); assay: bleomycin-treated Hermansky-Pudlak syndrome mice; assay type: in vivo, HPS-1 null mice (pale ear mice); conditions: bleomycin IP 5 consecutive days, kasugamycin 50 mg/kg qod from day 12
Description: FIG. 12A depicts a schematic illustration of the experiemental procedure. Bleomycin was given IP for 5 consecutive days followed by kasugamycin at 50 mg/kg qod for 7 days starting on day 12. FIG. 12B depicts a graph of the effects on fibrosis (collagen accumulation).

[4] = tested on: bleomycin-induced pulmonary fibrosis; assay: kasugamycin by gavage in the bleomycin IP model; assay type: in vivo, WT C57BL/6 mice; conditions: kasugamycin 50, 100 or 500 mg/kg by gavage everyday
Description: FIGS. 13A-13B depict the effect of kasugamycin when given by gavage in the bleomycin IP model. FIG. 13A depicts a schematic illustration of the experimental procedure. Pulmonary fibrosis was induced in WT C57BL/6 mice by injecting bleomycin 6 times intra-peritoneal (IP) injection (25 unit/kg) daily (day 1-6). Units/injection—100 uL of 6 U/mL bleomycin solution (0.6 unit/injection). Kasugamycin was then administered at 50 mg/kg, 100 mg/kg, or 500 mg/kg, gavage everyday. FIG. 13B depicts a graph of the effects on collagen count. The x-axis specifies the dose of kasugamcyin used.

[5] = tested on: bleomycin-induced pulmonary fibrosis; assay: bleomycin I.P. model of pulmonary fibrosis, kasugamycin I.P.; assay type: in vivo, C57 BL/6 mice; conditions: for pulmonary fibrosis / total lung collagen: bleomycin 25 Unit/kg daily for 6 days, kasugamycin 50 mg/Kg I.P. every other day, 7 doses, Sircol
Description: FIG. 2 depicts a schematic of experiments described herein, using a method reported by Inomata et al (Respiratory Research, 2014, 15:16) that was used for therapeutic efficacy of pirifenidone with minor modification. 8 Week old C57 BL/6 mice were used for the evaluation. Bleomycin (25 Unit/kg) was given daily for 6 days. Seven days after the last bleomycin challenge, Kasugamycin (50 mg/Kg) or PBS were delivered every other day via I.P. injection. The mice received a total of 7 doses of Kasugamycin. The mice were sacrificed a day after the last injection of Kasugamycin.
FIG. 3A depicts the results of a lung collagen assay by Sircol. FIG. 3B depicts results of RT-PCR assay of selected extracellular matrix genes on lung lysate *p<0.05, **p<0.01 by ANOVA evaluation, Bleo, bleomycin; KSM, kasugamycin.
The therapeutic window of kasugamycin was investigated using the method described in Inomata et al (Respiratory Research 2014 15:16) that was used to establish the therapeutic efficacy of pirifendidone, with minor modifications. Briefly, 8 week old C57 BL/6 mice were used for the evaluation. Bleomycin (25 Unit/kg) was given daily for 6 days. Seven days after the last bleomycin challenge, kasugamycin (50 mg/Kg) or PBS were delivered every other day via I.P. injection. The mice received a total of 7 doses of kasugamycin. The mice were sacrificed a day after the last injection of kasugamycin (FIG. 2).

[6] = cited from earlier work

recombinant Chit1, sequence (Q13231 22-466, species assumed): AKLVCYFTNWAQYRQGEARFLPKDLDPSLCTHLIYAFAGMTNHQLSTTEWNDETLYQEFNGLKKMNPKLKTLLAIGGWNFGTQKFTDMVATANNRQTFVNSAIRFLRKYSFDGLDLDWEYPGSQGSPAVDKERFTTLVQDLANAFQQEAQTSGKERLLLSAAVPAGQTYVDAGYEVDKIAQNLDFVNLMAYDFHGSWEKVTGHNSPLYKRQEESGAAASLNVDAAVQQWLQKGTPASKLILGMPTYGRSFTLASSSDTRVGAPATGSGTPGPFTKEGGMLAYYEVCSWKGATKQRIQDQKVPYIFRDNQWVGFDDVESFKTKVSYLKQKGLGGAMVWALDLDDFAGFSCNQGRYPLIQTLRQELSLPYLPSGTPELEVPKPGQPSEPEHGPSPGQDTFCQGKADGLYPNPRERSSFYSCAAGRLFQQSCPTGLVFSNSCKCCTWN

## C[C@H]1O[C@H](O[C@H]2[C@H](O)[C@@H](O)[C@@H](O)[C@H](O)[C@@H]2O)[C@@H](N)C[C@@H]1NC(=N)C(=O)O [kasugamycin, 2-amino-2-[(2R,3S,5S,6R)-5-amino-2-methyl-6-[(2R,3S,5S,6S)-2,3,4,5,6-pentahydroxycyclohexyl]oxyoxan-3-yl]iminoacetic acid]
[1]; transgenic TGFβ1 stimulation (FIG. 10)
  inflammation: inhibited inflammation
[1]
  fibrosis: potent inhibitor of fibrosis
[1]; listed as Kasuagmyicn
  fibrosis: inhibited
[2]
  BAL cell recovery: affected BAL cell recovery
  fibrosis / lung collagen: reduced lung collagen; also recorded: potent inhibitor of fibrosis
Recombinant Chit1
  inhibition of Chit1, expressed as % of the inhibitory activity of 200 uM pentoxifylline: more than 45%
  ability to inhibit Chit1 (chitotriosidase) activity: can inhibit Chit1
Recombinant Chit1; listed as Kasugamycin
  ability to inhibit Chit1 (chitotriosidase) activity: unique in its ability to inhibit chitotriosidase activity
Recombinant Chit1; listed as kasugamcyin
  ability to inhibit Chit1 (chitotriosidase) activity: unique amongst aminoglycosides in its ability to inhibit Chit 1
[3]
  fibrosis (collagen accumulation): potent inhibitor of fibrosis
[3]; listed as Kasugamycin
  fibrosis (collagen accumulation): reduced fibrosis
[4]
  fibrosis (collagen count): reduced fibrosis
[5]; after bleomycin, kasugamycin 50 mg/Kg I.P.
  matrix gene expression (RT-PCR on lung lysate): decreased
[5]
  pulmonary fibrosis / total lung collagen: reduction of collagen; also recorded: potent inhibitor of fibrosis; also recorded: reduced pulmonary fibrosis
[5]; listed as Kasugamycin
  pulmonary fibrosis / total lung collagen: decreased pulmonary fibrosis
[5]; bleomycin I.P. model (FIG. 7)
  lung histology: affect on histology
[6]
  water solubility: water soluble
